Legend:
[1] = molecular target: AtTPS19 (Arabidopsis thaliana, UniProt Q9LUE0); assay type: cell-based
[2] = molecular target: T1, AtTPS22 (Arabidopsis thaliana, UniProt Q9LQ27); assay type: cell-based
T1 sequence (Q9LQ27 57-603): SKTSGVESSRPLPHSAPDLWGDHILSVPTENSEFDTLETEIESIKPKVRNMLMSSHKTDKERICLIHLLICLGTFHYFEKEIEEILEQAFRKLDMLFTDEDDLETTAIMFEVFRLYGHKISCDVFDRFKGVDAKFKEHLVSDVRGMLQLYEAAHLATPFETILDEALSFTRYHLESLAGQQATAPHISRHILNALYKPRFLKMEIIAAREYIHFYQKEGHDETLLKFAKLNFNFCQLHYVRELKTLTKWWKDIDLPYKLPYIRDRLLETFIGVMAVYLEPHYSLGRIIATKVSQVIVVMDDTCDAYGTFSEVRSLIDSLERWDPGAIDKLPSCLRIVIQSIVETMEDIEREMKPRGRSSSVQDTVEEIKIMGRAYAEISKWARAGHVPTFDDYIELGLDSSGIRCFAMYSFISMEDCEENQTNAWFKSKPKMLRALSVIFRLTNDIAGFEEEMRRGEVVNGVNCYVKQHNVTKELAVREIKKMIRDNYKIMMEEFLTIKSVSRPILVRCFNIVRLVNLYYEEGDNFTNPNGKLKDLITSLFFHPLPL

[3] = molecular target: T2, AtTPS06 (Arabidopsis thaliana, UniProt Q84UU9); assay type: cell-based
T2 sequence (Q84UU9 53-611): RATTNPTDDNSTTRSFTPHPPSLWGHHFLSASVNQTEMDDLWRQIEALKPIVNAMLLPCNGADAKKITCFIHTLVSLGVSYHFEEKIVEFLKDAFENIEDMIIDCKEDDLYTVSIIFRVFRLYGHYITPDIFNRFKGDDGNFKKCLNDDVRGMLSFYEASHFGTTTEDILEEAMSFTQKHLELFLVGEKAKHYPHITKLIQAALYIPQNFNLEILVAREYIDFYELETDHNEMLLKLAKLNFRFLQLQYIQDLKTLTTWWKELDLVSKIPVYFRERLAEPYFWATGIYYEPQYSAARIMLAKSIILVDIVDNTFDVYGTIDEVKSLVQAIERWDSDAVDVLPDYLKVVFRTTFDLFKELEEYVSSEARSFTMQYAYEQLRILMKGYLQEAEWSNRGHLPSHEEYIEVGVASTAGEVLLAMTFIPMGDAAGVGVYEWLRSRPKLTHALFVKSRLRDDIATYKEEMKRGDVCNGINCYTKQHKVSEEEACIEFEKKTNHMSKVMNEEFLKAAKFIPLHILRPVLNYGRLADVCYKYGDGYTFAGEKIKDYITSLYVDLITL

[4] = molecular target: AtTPS29 (Arabidopsis thaliana, UniProt Q9C6W6); assay type: cell-based
[5] = molecular target: AtTPS18 (Arabidopsis thaliana, UniProt Q9LUE2); test: X-ray crystal structure; assay type: binding; settings: AtTPS18-PP complex
Sequence of AtTPS18 (Q9LUE2 52-605): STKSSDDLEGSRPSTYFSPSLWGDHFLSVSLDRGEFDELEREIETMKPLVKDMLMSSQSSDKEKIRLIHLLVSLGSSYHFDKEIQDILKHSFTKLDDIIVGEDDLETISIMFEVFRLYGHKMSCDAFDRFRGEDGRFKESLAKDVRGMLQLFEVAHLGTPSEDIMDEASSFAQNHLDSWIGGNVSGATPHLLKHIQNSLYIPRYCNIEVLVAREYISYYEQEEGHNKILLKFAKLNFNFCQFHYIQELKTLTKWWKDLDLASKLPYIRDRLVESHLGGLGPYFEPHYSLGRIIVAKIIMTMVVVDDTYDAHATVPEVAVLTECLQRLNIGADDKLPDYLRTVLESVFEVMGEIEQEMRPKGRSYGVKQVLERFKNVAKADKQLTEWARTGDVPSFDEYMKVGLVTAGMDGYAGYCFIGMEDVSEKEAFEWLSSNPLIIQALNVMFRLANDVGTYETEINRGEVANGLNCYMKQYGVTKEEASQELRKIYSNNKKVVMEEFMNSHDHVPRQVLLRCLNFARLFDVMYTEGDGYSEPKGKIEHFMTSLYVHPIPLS

Sequence of AtTPS29 (Q9C6W6 51-607): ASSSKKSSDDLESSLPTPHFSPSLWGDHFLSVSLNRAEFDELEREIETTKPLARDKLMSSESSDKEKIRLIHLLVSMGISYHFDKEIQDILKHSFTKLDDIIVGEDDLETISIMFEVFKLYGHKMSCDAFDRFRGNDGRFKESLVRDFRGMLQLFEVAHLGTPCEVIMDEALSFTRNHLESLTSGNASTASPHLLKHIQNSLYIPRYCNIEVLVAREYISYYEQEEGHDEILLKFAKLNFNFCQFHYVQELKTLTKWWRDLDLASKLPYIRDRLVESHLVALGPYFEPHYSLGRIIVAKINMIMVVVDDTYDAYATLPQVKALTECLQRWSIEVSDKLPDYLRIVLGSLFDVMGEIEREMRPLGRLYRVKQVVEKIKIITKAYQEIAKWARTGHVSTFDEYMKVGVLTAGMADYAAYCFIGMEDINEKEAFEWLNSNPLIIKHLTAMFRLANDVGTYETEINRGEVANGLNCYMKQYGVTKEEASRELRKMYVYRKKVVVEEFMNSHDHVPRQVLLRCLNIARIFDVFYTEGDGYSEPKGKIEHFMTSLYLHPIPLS
Sequence of AtTPS19 (Q9LUE0 49-602): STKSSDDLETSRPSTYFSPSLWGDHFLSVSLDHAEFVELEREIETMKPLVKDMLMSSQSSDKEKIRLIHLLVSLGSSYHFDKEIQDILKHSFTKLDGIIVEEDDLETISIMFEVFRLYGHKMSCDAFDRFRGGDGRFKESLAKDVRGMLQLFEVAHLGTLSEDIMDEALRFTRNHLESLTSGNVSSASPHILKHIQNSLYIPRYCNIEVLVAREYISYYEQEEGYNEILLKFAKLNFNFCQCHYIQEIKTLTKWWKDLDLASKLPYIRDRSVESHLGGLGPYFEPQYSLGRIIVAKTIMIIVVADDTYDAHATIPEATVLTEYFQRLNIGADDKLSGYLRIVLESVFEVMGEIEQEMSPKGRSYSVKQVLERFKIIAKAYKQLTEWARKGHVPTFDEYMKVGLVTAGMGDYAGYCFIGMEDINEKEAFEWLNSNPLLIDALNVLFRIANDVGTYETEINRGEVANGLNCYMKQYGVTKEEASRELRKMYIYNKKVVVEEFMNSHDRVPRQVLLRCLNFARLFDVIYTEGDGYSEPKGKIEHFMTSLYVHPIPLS

| Compound | GC-MS of products in E. coli [1] | GC-MS of products in E. coli [2] | GC-MS of products in E. coli [3] | GC-MS of products in E. coli [4] | X-ray crystal structure [5] |
| --- | --- | --- | --- | --- | --- |
| CC(C)=CCC/C(C)=C/CC/C(C)=C/CC/C(C)=C/CC/C(C)=C/COP(=O)(O)OP(=O)(O)O [GFPP] | C8 (the main product of AtTPS19) | sesterterpenes ... were detected in transgenic E. coli strains harboring AtTPS06, AtTPS22, or AtTPS29 | AtTPS06, a multi-product enzyme, produces more than ten different sesterterpenes from GFPP | sesterterpenes ... were detected in transgenic E. coli strains harboring AtTPS06, AtTPS22, or AtTPS29 | – |
| O=P(O)(O)OP(=O)(O)O [PP] | – | – | – | – | AtTPS18-PP (PDB code 7BZB) |
